Reference: article PMC6915728 (Nature Communications, 2019)
Like-named read-outs stand apart in the source and are kept apart here.

Assays:
[1] = tested on: AMP-evolved E. coli lines; settings: ref Spohn et al 2019, cited from earlier work
From the text: Supplement 41467_2019_13618_MOESM13_ESM.xlsx, sheet "Figure 6 and S15" | column: A comprehensive dataset of antimicrobial susceptibility of AMP-adapted lines to antimicrobial peptides (AMPs).

E. coli BW25113 ΔmlaD = experiment: MIC, serial broth dilution, mlaD knockout strain vs wild type; assay type: cell-based, Escherichia coli; settings: mlaD deletion strain relative to control (E. coli BW25113); 3 replicates each; from optical density values of serial dilution plates, AMP in µg ml-1
Experimental: What could be the mechanism behind the antagonistic action of this pathway on membrane- versus intracellular-targeting AMPs? Since MlaD is part of a protein complex, it may lead to a loss-of-function effect upon overexpression[41],[42]. To test this, we asked whether overexpression and deletion of mlaD cause similar changes in susceptibility to a representative set of membrane- and intracellular-targeting AMPs.
Minimum inhibitory concentrations (MIC) were determined with a standard serial broth dilution technique with a minor modification. Specifically, instead of a two-fold dilution series, smaller AMP concentration steps were used (typically 1.2-fold) for two reasons. […] Second, gene overexpressions caused typically only small changes in the MICs of AMPs and therefore higher resolution was required. The protocol was as follows. From a stock solution of an AMP, 12-steps serial dilution was prepared in fresh MS medium in 96-well microtiter plates. Each AMP was represented in 11 different concentrations (3 wells per AMP concentration per strain). Three wells contained only medium to check the growth in the absence of AMP. After overnight growth in MS medium supplemented with chloramphenicol, bacterial strains were diluted 20-fold into fresh MS medium and grown until the cell density reached OD600 ~1. Cells were induced by 100 µM of IPTG and incubated for 1 h at 30 °C with continuous shaking at 300 rpm. Following incubation, approximately half-million cells were inoculated into the wells of the 96-well microtiter plate with a 96‐pin replicator. We used three independent replicates for each strain and the corresponding control. Two rows in the 96-well plate contained only MS medium in order to obtain the background OD value of the medium. Plates were incubated at 30 °C with continuous shaking at 300 rpm. After 20–24 h of incubation, OD600 values were measured in a microplate reader (Biotek Synergy 2).
A mlaD knockout strain of E. coli BW25113 carrying a kanamycin resistance cassette in the position of the gene was selected from the KEIO collection. The resistance marker was removed using plasmid-borne (pFT-A) expression of FLP recombinase leading to excision of the kanamycin resistance cassette. Cassette excision was verified by a polymerase chain reaction using the primers mlaD_del_ver_Fw (5′- […]) and mlaD_del_ver_Rev (5′- […]).
Supplementary Figure 13. […] The bacterial susceptibility of the mutant to AMPs was tested by MIC determination. Growth is shown relative to growth in the absence of the corresponding AMP. The blue line represents the mlaD knockout strain and the orange line represents the control strain (wild-type E. coli BW25113). Error bars indicate the standard errors based on three biological replicates. Source data are provided in the Source Data file.

Sequence	Relative change in MIC (MIC of the AMP-adpated line / MIC of the ancestral strain) ([1]; AMP-adapted line BAC5_3)	Relative change in MIC (MIC of the AMP-adpated line / MIC of the ancestral strain) ([1]; AMP-adapted line BAC5_5)	Relative change in MIC (MIC of the AMP-adpated line / MIC of the ancestral strain) ([1]; AMP-adapted line BAC5_7)	Relative change in MIC (MIC of the AMP-adpated line / MIC of the ancestral strain) ([1]; AMP-adapted line BAC5_10)	Relative change in MIC (MIC of the AMP-adpated line / MIC of the ancestral strain) ([1]; AMP-adapted line CAP18_2)	Relative change in MIC (MIC of the AMP-adpated line / MIC of the ancestral strain) ([1]; AMP-adapted line CAP18_5)	Relative change in MIC (MIC of the AMP-adpated line / MIC of the ancestral strain) ([1]; AMP-adapted line CAP18_6)	Relative change in MIC (MIC of the AMP-adpated line / MIC of the ancestral strain) ([1]; AMP-adapted line CAP18_8)	Relative change in MIC (MIC of the AMP-adpated line / MIC of the ancestral strain) ([1]; AMP-adapted line CAP18_10)	Relative change in MIC (MIC of the AMP-adpated line / MIC of the ancestral strain) ([1]; AMP-adapted line HBD3_3)	Relative change in MIC (MIC of the AMP-adpated line / MIC of the ancestral strain) ([1]; AMP-adapted line HBD3_6)	Relative change in MIC (MIC of the AMP-adpated line / MIC of the ancestral strain) ([1]; AMP-adapted line HBD3_8)	Relative change in MIC (MIC of the AMP-adpated line / MIC of the ancestral strain) ([1]; AMP-adapted line HBD3_10)	Relative change in MIC (MIC of the AMP-adpated line / MIC of the ancestral strain) ([1]; AMP-adapted line PEX_1)	Relative change in MIC (MIC of the AMP-adpated line / MIC of the ancestral strain) ([1]; AMP-adapted line PEX_4)	Relative change in MIC (MIC of the AMP-adpated line / MIC of the ancestral strain) ([1]; AMP-adapted line PEX_5)	Relative change in MIC (MIC of the AMP-adpated line / MIC of the ancestral strain) ([1]; AMP-adapted line PEX_6)	Relative change in MIC (MIC of the AMP-adpated line / MIC of the ancestral strain) ([1]; AMP-adapted line PEX_7)	Relative change in MIC (MIC of the AMP-adpated line / MIC of the ancestral strain) ([1]; AMP-adapted line PR39_1)	Relative change in MIC (MIC of the AMP-adpated line / MIC of the ancestral strain) ([1]; AMP-adapted line PR39_2)	other results
RWCFRVCYRGICYRKCR [TPII, Tachyplesin II, antimicrobial peptide from Japanese horseshoe crab; disrupts cell membrane; cluster C1]	1	1	1.1	1.1	1.1	1	1	1.1	1	1.2	1.2	1.2	1.2	1.1	1.2	1.1	1	1	1	0.9	Relative change in MIC (MIC of the AMP-adpated line / MIC of the ancestral strain) ([1]; AMP-adapted line LL37_1): 1.1; Relative change in MIC (MIC of the AMP-adpated line / MIC of the ancestral strain) ([1]; AMP-adapted line LL37_3): 1.1; Relative change in MIC (MIC of the AMP-adpated line / MIC of the ancestral strain) ([1]; AMP-adapted line LL37_6): 1; Relative change in MIC (MIC of the AMP-adpated line / MIC of the ancestral strain) ([1]; AMP-adapted line LL37_7): 1; Relative change in MIC (MIC of the AMP-adpated line / MIC of the ancestral strain) ([1]; AMP-adapted line LL37_10): 1; Relative change in MIC (MIC of the AMP-adpated line / MIC of the ancestral strain) ([1]; AMP-adapted line PR39_5): 0.9; Relative change in MIC (MIC of the AMP-adpated line / MIC of the ancestral strain) ([1]; AMP-adapted line PR39_7): 0.9; Relative change in MIC (MIC of the AMP-adpated line / MIC of the ancestral strain) ([1]; AMP-adapted line PR39_10): 0.9; Relative change in MIC (MIC of the AMP-adpated line / MIC of the ancestral strain) ([1]; AMP-adapted line PROA_2): 1.1; Relative change in MIC (MIC of the AMP-adpated line / MIC of the ancestral strain) ([1]; AMP-adapted line PROA_3): 0.8; Relative change in MIC (MIC of the AMP-adpated line / MIC of the ancestral strain) ([1]; AMP-adapted line PROA_7): 1; Relative change in MIC (MIC of the AMP-adpated line / MIC of the ancestral strain) ([1]; AMP-adapted line PROA_8): 1; Relative change in MIC (MIC of the AMP-adpated line / MIC of the ancestral strain) ([1]; AMP-adapted line PROA_9): 1.1; Relative change in MIC (MIC of the AMP-adpated line / MIC of the ancestral strain) ([1]; AMP-adapted line PXB_2): 1.1; Relative change in MIC (MIC of the AMP-adpated line / MIC of the ancestral strain) ([1]; AMP-adapted line PXB_5): 1; Relative change in MIC (MIC of the AMP-adpated line / MIC of the ancestral strain) ([1]; AMP-adapted line PXB_6): 1.1; Relative change in MIC (MIC of the AMP-adpated line / MIC of the ancestral strain) ([1]; AMP-adapted line PXB_8): 1; Relative change in MIC (MIC of the AMP-adpated line / MIC of the ancestral strain) ([1]; AMP-adapted line PXB_10): 1.1; Average relative change in MIC (E. coli BW25113 ΔmlaD): 1.35
LLGDFFRKSKEKIGKEFKRIVQRIKDFLRNLVPRTES [LL37, LL-37 human cathelicidin, human host-defense peptide; disrupts cell membrane; cluster C2]	1	1.2	1.1	1.1	6.3	3.7	1.2	6.3	8.2	1.7	1.2	1.7	1.7	1.1	16	0.9	1	1	1.2	1.2	Relative change in MIC (MIC of the AMP-adpated line / MIC of the ancestral strain) ([1]; AMP-adapted line PR39_5): 0.9; Relative change in MIC (MIC of the AMP-adpated line / MIC of the ancestral strain) ([1]; AMP-adapted line PR39_7): 1; Relative change in MIC (MIC of the AMP-adpated line / MIC of the ancestral strain) ([1]; AMP-adapted line PR39_10): 0.8; Relative change in MIC (MIC of the AMP-adpated line / MIC of the ancestral strain) ([1]; AMP-adapted line PROA_2): 1; Relative change in MIC (MIC of the AMP-adpated line / MIC of the ancestral strain) ([1]; AMP-adapted line PROA_3): 0.8; Relative change in MIC (MIC of the AMP-adpated line / MIC of the ancestral strain) ([1]; AMP-adapted line PROA_7): 0.9; Relative change in MIC (MIC of the AMP-adpated line / MIC of the ancestral strain) ([1]; AMP-adapted line PROA_8): 1; Relative change in MIC (MIC of the AMP-adpated line / MIC of the ancestral strain) ([1]; AMP-adapted line PROA_9): 0.9; Relative change in MIC (MIC of the AMP-adpated line / MIC of the ancestral strain) ([1]; AMP-adapted line PXB_2): 1; Relative change in MIC (MIC of the AMP-adpated line / MIC of the ancestral strain) ([1]; AMP-adapted line PXB_5): 0.9; Relative change in MIC (MIC of the AMP-adpated line / MIC of the ancestral strain) ([1]; AMP-adapted line PXB_6): 1; Relative change in MIC (MIC of the AMP-adpated line / MIC of the ancestral strain) ([1]; AMP-adapted line PXB_8): 1; Relative change in MIC (MIC of the AMP-adpated line / MIC of the ancestral strain) ([1]; AMP-adapted line PXB_10): 1; Average relative change in MIC (E. coli BW25113 ΔmlaD): 2.25
